Read-outs that look alike come from different tables or passages of the source.
Assays:
Type in all cases: in vivo, human
[1] = test system: patients with moderate to severe atopic dermatitis having high eosinophil levels; test: Post hoc stratification of the phase II study: subgroup with high eosinophil > 0.3 × 10^9/L; conditions: daily, 8 weeks
Experimental: Further to the randomized, double-blind, placebo-controlled, phase II study of Example 2 above, a post hoc stratification analysis was performed using the results of that study to assess the efficacy of orally administered DS107G (DGLA) to patients with moderate to severe atopic dermatitis having normal eosinophil levels of less than about 0.3×10^9/L compared to the same population receiving placebo and/or to the total study population. The primary objective of the post hoc stratification study was to compare the efficacy of orally administered DS107G capsules, versus placebo, in the treatment of adult patients with moderate to severe atopic dermatitis having normal eosinophil levels of less than about 0.3×10^9/L. The secondary objective was to compare the efficacy of orally administered DS107G capsules in the treatment of adult patients with moderate to severe atopic dermatitis having normal eosinophil levels of less than about 0.3×10^9/L versus the total study population. Unless stated otherwise, all elements of the post hoc stratification analysis were the same as those of the phase II study described in Example 2 above.
A comparison of the total study population (see column “DS107 Phase 2a I.T.T.”), patients having normal eosinophil levels, and patients having high eosinophil levels separated by patients who received DS107 or placebo is shown in Table 32 below.

[2] = Phase one study: effect of food on single 1000 mg dose PK (fasted vs fed); conditions: for AUC0-24, mean, free DGLA, baseline-corrected plasma / AUC0-24/Dose, mean, free DGLA, baseline-corrected plasma / AUC0-24/Dose, mean, total DGLA, baseline-corrected plasma / AUC0-inf, mean, free DGLA, baseline-corrected plasma / AUC0-inf/Dose, mean, free DGLA, baseline-corrected plasma / CL/F, mean, free DGLA, baseline-corrected plasma / Cmax, mean, free DGLA, baseline-corrected plasma / Cmax/Dose, mean, free DGLA, baseline-corrected plasma / Cmax/Dose, mean, total DGLA, baseline-corrected plasma / λz, mean, free DGLA, baseline-corrected plasma / λz, mean, total DGLA, baseline-corrected plasma / half-life / Tmax: 1000 mg single dose; for mean baseline-corrected AUC0-24, total DGLA vs free DGLA / mean baseline-corrected Cmax, total DGLA vs free DGLA / half-life / Tmax: 1000 mg; for half-life / Tmax: human, plasma, oral; for half-life: read-out: t1/2, median, free DGLA, baseline-corrected plasma (converted); for Tmax: read-out: tmax, median, free DGLA, baseline-corrected plasma
Experimental: Subjects were randomly assigned in a 3:1 ratio of DG107G to placebo by block randomization. Single dose part one of the study comprised three cohorts of eight subjects each, with the addition of Cohort four based on evaluation of the safety data of Cohort three by the Safety Monitoring Committee (SMC). A single oral dose of DS107G or matching placebo was administered to fasted subjects in Cohorts one to three (500, 1000, and 2000 mg, respectively) in parallel; subjects in Cohort four were administered a dose of 4000 mg following completion of Cohort three. Subjects in Cohort two received 1000 mg or matching placebo in the fed state at 14 days after the first dose.
Food effect was evaluated in Cohort two at least 14 days after the first dose at which time a second single dose was administered. Subjects were administered a 1000-mg dose of study drug with 240 mL of water after a 10-hour fasting period and 30 minutes after starting consumption of a meal. Subjects then refrained from food intake for at least 4 hours after dosing. Food consumption was standardized for at least 12 hours after dosing using a standardized high-fat meal (800 to 1000 kcal with 500 to 600 kcal from fat and 250 kcal from carbohydrates). A typical standard test meal consisted of two eggs fried in butter, two strips of bacon, two slices of toast with butter, 120 mL of hash brown potatoes, and 240 mL of whole milk.
Subjects in Cohort two undergoing evaluation of the food effect on oral 1000 mg DGLA capsules were restricted from food consumption for at least 4 hours after dosing. Food consumption was standardized for at least 12 hours post dose using a standardized high-fat meal.

[3] = test system: eosinophil; test: Phase II study: eosinophil concentrations by ethnicity and responder status
Experimental: Laboratory tests were performed at screening, Day 0, Week 4 and Week 8. If Week 8 results indicated a clinically significant change from baseline, laboratory tests were also performed at Week 10. The tests included urinalysis, hematology with differential and coagulation testing, a standard chemistry panel (chemistry includes liver function tests and cholesterol), coagulation, serum pregnancy test (screening and week 8 early termination visits) for women of childbearing potential (WOCBP). At baseline (Day 0), week 2, week 4 and week 10 visits, a urine pregnancy test was performed for women of childbearing potential (conducted at the investigator site).
Eosinophils are a type of white blood cell that play an important role in the body's response to allergic reactions, asthma, and infection with parasites. Eosinophils usually account for less than 7% of the circulating white blood cells (100 to 500 eosinophils per microliter of blood). These cells have a role in the protective immunity against certain parasites but also contribute to the inflammation that occurs in allergic disorders.
FIG. 30A-B. In particular, 56% of DS107-treated African America patients were classified as Responders, versus only 7% of Caucasian patients. […]

For `CCCCC/C=C\C/C=C\C/C=C\CCCCCCC(=O)O` [DS107G, Dihomo gamma linolenic acid], which “BSA Change from Baseline” value [1] is on record?
Its value is −14.9%.

And the “EASI Percentage Change from Baseline” value [1]?
Its value is −20.1%.

And the “EASI-50 (%)” value [1]?
Its value is 22.7%.

And the “EASI-75 (%)” value [1]?
Its value is 9.1%.

What about the “IGA responder (%)” value [1] of the same compound?
Its value is 0%.

What about the “Pruritus Percentage Change from Baseline” value [1] of the same compound?
The value was −6.5%.

And the “AUC0-24, mean, free DGLA, baseline-corrected plasma” value ([2]; fasted)?
The value was 3998.5 ng·h/mL.

What about the “AUC0-24/Dose, mean, free DGLA, baseline-corrected plasma” value ([2]; fasted) of the same compound?
The value was 4.00 h/kL.

And the “AUC0-24/Dose, mean, total DGLA, baseline-corrected plasma” value ([2]; fasted)?
Its value is 215.37 h/kL.

And the “AUC0-inf, mean, free DGLA, baseline-corrected plasma” value ([2]; fasted)?
The value was 218955.6 ng·h/mL.

And the “AUC0-inf/Dose, mean, free DGLA, baseline-corrected plasma” value ([2]; fasted)?
Its value is 218.96 h/kL.

And the “CL/F, mean, free DGLA, baseline-corrected plasma” value ([2]; fasted)?
Its value is 0.1866 kL/h.

What about the “Cmax, mean, free DGLA, baseline-corrected plasma” value ([2]; fasted) of the same compound?
The value was 1602.8 ng/mL.

And the “Cmax/Dose, mean, free DGLA, baseline-corrected plasma” value ([2]; fasted)?
The value was 1.603 kL⁻¹.

And the “Cmax/Dose, mean, total DGLA, baseline-corrected plasma” value ([2]; fasted)?
The value was 15.750 kL⁻¹.

What about the “λz, mean, free DGLA, baseline-corrected plasma” value ([2]; fasted) of the same compound?
The value was 0.0487 h⁻¹.

What about the “λz, mean, total DGLA, baseline-corrected plasma” value ([2]; fasted) of the same compound?
Its value is 0.0136 h⁻¹.

And the “AUC0-24, mean, free DGLA, baseline-corrected plasma” value ([2]; fed)?
The value was 2102.7 ng·h/mL.

And the “AUC0-24/Dose, mean, free DGLA, baseline-corrected plasma” value ([2]; fed)?
The value was 2.10 h/kL.

What about the “AUC0-24/Dose, mean, total DGLA, baseline-corrected plasma” value ([2]; fed) of the same compound?
The value was 117.39 h/kL.

What about the “AUC0-inf, mean, free DGLA, baseline-corrected plasma” value ([2]; fed) of the same compound?
Its value is 29150.8 ng·h/mL.

And the “AUC0-inf/Dose, mean, free DGLA, baseline-corrected plasma” value ([2]; fed)?
Its value is 29.15 h/kL.

And the “CL/F, mean, free DGLA, baseline-corrected plasma” value ([2]; fed)?
Its value is 0.1658 kL/h.

And the “Cmax, mean, free DGLA, baseline-corrected plasma” value ([2]; fed)?
The value was 520.2 ng/mL.

What about the “Cmax/Dose, mean, free DGLA, baseline-corrected plasma” value ([2]; fed) of the same compound?
The value was 0.520 kL⁻¹.

What about the “Cmax/Dose, mean, total DGLA, baseline-corrected plasma” value ([2]; fed) of the same compound?
Its value is 10.317 kL⁻¹.

And the “λz, mean, free DGLA, baseline-corrected plasma” value ([2]; fed)?
The value was 0.0403 h⁻¹.

And the “λz, mean, total DGLA, baseline-corrected plasma” value ([2]; fed)?
The value was 0.0805 h⁻¹.

And the “mean baseline-corrected AUC0-24, total DGLA vs free DGLA” value ([2]; fasted)?
Its value is ~54 fold.

And the “mean baseline-corrected Cmax, total DGLA vs free DGLA” value ([2]; fasted)?
The value was ~10 fold.

And the “mean baseline-corrected AUC0-24, total DGLA vs free DGLA” value ([2]; fed)?
Its value is ~56 fold.

And the “mean baseline-corrected Cmax, total DGLA vs free DGLA” value ([2]; fed)?
Its value is ~20 fold.

What about the half-life ([2]; fasted) of the same compound?
The half-life was 28.3 h.

What about the Tmax ([2]; fasted) of the same compound?
The Tmax was 4 h.

What about the half-life ([2]; fed) of the same compound?
The half-life was 141 h.

And the Tmax ([2]; fed)?
The Tmax was 5 h.

What about the “free DGLA Cmax occurred sooner under fasted than fed conditions (median)” value ([2]; single 1000-mg dose) of the same compound?
The value was 1 h.

And the “higher rate and extent of total DGLA absorption under fasted conditions (mean Cmax and AUC0-24)” value ([2]; single 1000-mg dose)?
The value was “approximately 50%”.

And the “mean baseline-corrected free DGLA Cmax, fasted vs fed” value ([2]; single 1000-mg dose)?
The value was “about 3 fold”.

And the “mean free DGLA baseline-corrected AUC0-24, fasted vs fed” value ([2]; single 1000-mg dose)?
Its value is “about 2 fold”.

And the “total DGLA mean baseline-corrected AUC0-24, fasted vs fed” value ([2]; single 1000-mg dose)?
Its value is “about 1.8 fold”.

What about the “total DGLA mean baseline-corrected Cmax, fasted vs fed” value ([2]; single 1000-mg dose) of the same compound?
The value was “about 1.5 fold”.

And the “total DGLA tmax occurred sooner under fasted than fed conditions” value ([2]; single 1000-mg dose)?
Its value is “about 50%”.

And the eosinophil concentrations ([3]; African American vs Caucasian patients, each time point measured)?
Its eosinophil concentrations is “statistically significant reductions”.

What about the eosinophil concentration ([3]; treated Responders vs Non-responders, all time points) of the same compound?
The eosinophil concentration was “statistically significant decrease”.

Reference: patent US20180333382A1, “PHARMACEUTICAL COMPOSITIONS COMPRISING DGLA AND USE OF SAME” (DS Biopharma Limited, priority 2017, published 2018)
